Data: patent publication US6635656B1, “Cytotoxic alkaloids halitulin” (Pharma Mar, S.A., priority 1998, dated 2003)
In brackets after ≈: the same amount, converted by molar mass. Read-outs that look alike come from different tables or passages of the source.

Tests used:
[1] = tested on: MEL-28 human melanoma; experiment: Cytotoxicity screening against MEL-28 cell culture; assay type: cell-based; details: SK-MEL-28, 72 h, MEL-28 cells, three days of incubation, Crystal Violet
Text: (§1) Cell Cultures. Cells were maintained in logarithmic phase of growth in eagle's Minimum Essential Medium, with Earle's Balanced Salts, with […] L-glutamine, with non-essential amino acids, without sodium bicarbonate (EMEM/neaa); supplemented with 10% Fetal Calf Serum (FCS), 10^−2 M sodium bicarbonate and 0,1 g/l penicillin-G+streptomycin sulfate.
(§2) A simple screening procedure has been carried out to determine and compare the antitumor activity of these compounds, using an adapted form of the method described by Bergeron et al. (1984)(1). The antitumor cells employed have been P-388 (suspension culture of a lymphoid neoplasm from DBA/2 mouse), A0549 (monolayer culture of a human lung carcinoma), HT-29 (monolayer culture of a human colon carcinoma) and MEL-28 (monolayer culture of a human melanoma).
(§3) A-549, HT-29 and MEL-28 cells were seeded into 16 mm wells at 2×10^4 cells per well in 1 ml aliquots of MEM 10FCS containing the indicated concentration of drug. A separate set of cultures without drug was seeded as control growth to ensure that cells remained in exponential phase of growth. All determinations were carried out in duplicate. After three days of incubation at 37° C., 10% CO2 in a 98% humid atmosphere, the wells were stained with 0.1% Crystal Violet. An approximately IC50 was determined by comparing the growth in wells with drug to the growth in wells control.

[2] = tested on: A-549 human lung carcinoma; experiment: Cytotoxicity screening against A-549 cell culture; assay type: cell-based; details: A-549 cells, three days of incubation, Crystal Violet
Text: as §1, §2, §3

[3] = Stability observations (light, air, handling); assay type: physicochemical; details: N-oxides, then o-quinolinoquinone, form
Procedure: Halitulin (2) was analyzed for C35H40N4O4 by HREIMS (m/z 580.3054, 100% Δmmu−0.5) confirmed by positive and negative FABMS (m/z 581 and 579, respectively). […] The duplicated part, according to the integration of the proton signals, was determined to be the aromatic portion of the molecule. Comparing the NMR data of the aliphatic part of 2 (Table 1) with haliclorensin (1)^7, together with the COSY, TOCSY, and HMBC data, established their identity. The incorporation of 1 in halitulin was further supported by the two MS fragments at m/z 168 (C11H22N+, 48%) and m/z/399 (MW^+-C12H24N, 90%), resulting from the preferable αβ to the aliphatic nitrogen-atoms^1 fragmentation at C-13,14 and C-12,13 respectively. Determination of the haliclorensin moiety in 2 left C22H14N3O4 (including the adjoining N-atom) with 17 degrees of unsaturation to be accounted for. […] Indeed, acetylation of 2, with a 1:1 mixture of Ac2O/pyridine, overnight at room temperature., afforded a very unstable tetra phenol acetate (3), on the basis of the HREIMS which gave the suitable molecular ion and also four subsequential losses of 42 mass units, and no loss of 60 mass units^13. The four phenol acetate groups were in full agreement with the 1773 cm^−1 IR absorption and the new methyls in the proton NMR. […]

[4] = tested on: HT-29 human colon carcinoma; experiment: Cytotoxicity screening against HT-29 cell culture; assay type: cell-based; details: HT-29 cells, three days of incubation, Crystal Violet
Text: as §1, §2, §3

[5] = tested on: P-388 murine leukemia; experiment: Cytotoxicity screening against P-388 cell culture; assay type: cell-based; details: Mus musculus, P388; P-388 cells, approximate IC50 from growth vs control wells
Text: as §1, §2
P-388 cells were seeded into 16 mm wells at 1×10^4 cells per well in 1 ml aliquots of MEM 5FCS containing the indicated concentration of drug. A separate set of cultures without drug was seeded as control growth to ensure that cells remained in exponential phase of growth. All a 98% humid atmosphere, an approximately IC50 was determined by comparing the growth in wells with drug to the growth in wells control.

[6] = Cytotoxic activity, test not specified; assay type: cell-based; details: qualitative statement, cell line not given

stability to light and air [3]	Structure (SMILES)	IC50 [1] [µg/mL]	IC50 [2] [µg/mL]	IC50 ([2]; Homo sapiens, A549, 72 h, read-out: IC50) [µg/mL]	IC50 [4] [µg/mL]	IC50 ([4]; Homo sapiens, HT-29, 72 h, read-out: IC50) [µg/mL]	IC50 [5] [µg/mL]	cytotoxic activity [6]
sensitive to light and air	CC1CCCCCCCN(CCCn2cc(-c3cc(O)c(O)c4ncccc34)c(-c3cc(O)c(O)c4ncccc34)c2)C1 (centres unmarked) [Halitulin, halitulin]	0.025 (≈ 0.043 µM)	0.0125 (≈ 0.0215 µM)	0.012 (≈ 0.0207 µM)	0.0125 (≈ 0.0215 µM)	0.012 (≈ 0.0207 µM)	0.025 (≈ 0.043 µM)	
	CC1CCCCCN(CCCN)C1 (centres unmarked) [haliclorensin, N-(3′-arninopropyl)-3-methylazacyclodecane]							inactive
